Here are results for eight molecules from patent publication US20220168434A1, “APPLICATION OF TRANSTHYRETIN IN ENTERING EYE AND PREPARING DROP” (YIZHOU (SHANGHAI) BIOLOGICAL MEDICINE CO, LTD., priority 2019, published 2022).

pKd: −log10 of the molar value.

Experiment [1] deals with DR SD rats induced by STZ. As to the kind of experiment: DR (diabetic retinopathy) SD rats induced by STZ, eye dropping, EB staining and Trypsin enzymatic hydrolysis of retina. As to conditions: for eyeball retinal leakage condition (in words) / number of retinal neovascularization (in words): eye dropping twice per day. It is filed as in vivo. The procedure: 8-week-old SD rats weighing 200-250 g was fasted for 12-18 h, and treated with intraperitoneally injection of 2% STZ (60 mg/kg), followed by cutting the tail and collecting blood thereof after 48 h and 72 h. […] DR SD rats were divided into 2 large groups, one is DR SD rats without any treatment (5 rats), and the other is the human TTR eye dropping group (25 rats) dropped with the human TTR prepared in Example 5, each left eye dropped with human TTR (5-20 μmol/L) (normal saline+2% hyaluronic acid) twice a day, and each right eye dropped with saline+2% hyaluronic acid; in addition, another group of normal SD rats (No eye dropping) served as a normal control group (5 rats).
8-week-old SD rats weighing 200-250 g was fasted for 12-18 h, and treated with intraperitoneally injection of 2% STZ (60 mg/kg), followed by cutting the tail and collecting blood thereof after 48 h and 72 h. […]
8-week-old SD rats weighing 200-250 g, was fasted for 12-18 h, and treated with intraperitoneally injection of 2% STZ (60 mg/kg), followed by cutting the tail and collecting blood thereof after 48 h and 72 h. […] Wherein, the left eye was dropped with human TTR prepared in Example 5, or human TTR prepared in Example 5 added with the ligand, specifically with 10 μmol/L human TTR (saline solution+2% hyaluronic acid), 10 μmol/L human TTR (saline solution+2% hyaluronic acid+10 diclofenac sodium), 10 μmol/L human TTR (saline solution+2% hyaluronic acid+5 μmol/L vitamin A+5% Tween 80) and 10 μmol/L human TTR (saline solution+2% hyaluronic acid+5 luteoloside); the right eye was dropped with saline solution+2% hyaluronic acid, or saline solution+2% hyaluronic acid+ligand as control, specifically with saline solution+2% hyaluronic acid, saline solution+2% hyaluronic acid+10 diclofenac sodium, saline solution+2% hyaluronic acid+5 μmol/L vitamin A+5% Tween 80 and saline solution+2% hyaluronic acid+5 μmol/L luteoloside. In addition, there was another group of normal SD rats as a normal control group (5 rats). All SD rats were fed for 3 months, followed by stripping the retina for staining with Evans Blue (EB) to observe the retinal vascular leakage, for Trypsin enzymatic hydrolysis to observe the density of neovascularization.

Experiment [2] has as its system ROP SD suckling rats induced by hyperbaric oxygen chamber. The experiment can be described thus: ROP (retinopathy of prematurity) SD suckling rats induced by hyperbaric oxygen chamber, eye dropping, EB staining of retina. It is filed as in vivo.
For experiment [3], the system named is AMD C57BL/6 mice induced by laser retinal photocoagulation. The experiment can be described thus: AMD (age-related macular degeneration) C57BL/6 mice induced by laser retinal photocoagulation, eye dropping, EB staining and Trypsin enzymatic hydrolysis of retina. It is filed as in vivo. The note with it: for eyeball retinal leakage condition (in words) / number of retinal neovascularization / neovascularization condition (in words): 10 μmol/L, eye dropping twice per day.
From the text: (§1) 9-week-old C57BL/6 mice were subject to retinal photocoagulation by krypton laser (647 nm), with a power of 360 mW, a diameter of 50 μm, a time of 0.05 s, 8 photocoagulation site for each eye, for inducing the neovascularization in choroid, and gradually proceeding to retinal hyperplasia to obtain AMD C57BL/6 mice. AMD C57BL/6 mice were divided into a dropping group and a non-dropping group.
as §1, with “group. […] The animals were sacrificed after eye dropping for 2 weeks, and the retina was stripped for EB staining to observe the retinal leakage conditions, and for Trypsin enzymatic hydrolysis to observe the density of neovascularization.” for “group.”
9-week-old C57BL/6 mice were subject to retinal photocoagulation by krypton laser (647 nm), with a power of 360 mW, a diameter of 50 μm, a time of 0.05 s, 8 photocoagulation site for each eye, for inducing the neovascularization in choroid, and gradually proceeding to retinal hyperplasia to obtain AMD C57BL/6 mice. […] Wherein, the left eye was dropped with human TTR prepared in Example 5, or human TTR prepared in Example 5 added with the excipient, specifically with 10 μmol/L human TTR (saline solution), 10 μmol/L human TTR (saline solution+6 mg/mL sodium carboxymethyl cellulose), 10 μmol/L human TTR (saline solution+6 mg/mL PEG400), 10 μmol/L human TTR (saline solution+0.4 mg/mL dextran 70) and 10 μmol/L human TTR (saline solution+20 mg/mL chondroitin sulfate A sodium salt); the right eye was dropped with saline solution, or saline solution added with the excipient as control, specifically with saline solution, saline solution+6 mg/mL sodium carboxymethyl cellulose, saline solution+6 mg/mL PEG400, saline solution+0.4 mg/mL dextran 70 and saline solution+20 mg/mL chondroitin sulfate A sodium salt). In addition, there was another group of normal […] C57BL/6 mice as a normal control group (5 mice). The animals were sacrificed after eye dropping for 2 weeks, and the retina was stripped for EB staining to observe the retinal leakage conditions, and for Trypsin enzymatic hydrolysis to observe the density of neovascularization.
9-week-old C57BL/6 mice were subject to retinal photocoagulation by krypton laser (647 nm), with a power of 360 mW, a diameter of 50 μm, a time of 0.05 s, 8 photocoagulation site for each eye, for inducing the neovascularization in choroid, and gradually proceeding to retinal hyperplasia to obtain AMD C57BL/6 mice. […] Wherein, the left eye was dropped with human TTR prepared in Example 5, or human TTR prepared in Example 5 added with the ligand, specifically with 10 μmol/L human TTR (saline solution+2% hyaluronic acid), 10 μmol/L human TTR (saline solution+2% hyaluronic acid+10 diclofenac sodium), 10 μmol/L human TTR (saline solution+2% hyaluronic acid+5 μmol/L vitamin A+5% Tween 80) and 10 μmol/L human TTR (saline solution+2% hyaluronic acid+5 μmol/L luteoloside); the right eye was dropped with saline solution+2% hyaluronic acid, or saline solution+2% hyaluronic acid+ligand as control, specifically with saline solution+2% hyaluronic acid, saline solution+2% hyaluronic acid+10 diclofenac sodium, saline solution+2% hyaluronic acid+5 μmol/L vitamin A+5% Tween 80 and saline solution+2% hyaluronic acid+5 luteoloside. In addition, there was another group of normal C57BL/6 mice as a normal control group (5 mice). The animals were sacrificed after eye dropping for 2 weeks, and the retina was stripped for EB staining to observe the retinal leakage conditions, and for Trypsin enzymatic hydrolysis to observe the density of neovascularization.

The next experiment addresses T1, TTR (Homo sapiens, UniProt P02766).
T1 construct: made in house; host or cells: E. coli BL21 (DE3)
As to the kind of experiment: Affinity binding equilibrium dissociation constant Kd of TTR and ligand molecules by nano ITC. The note with it: 10 μmol/L TTR solution, 100 μmol/L ligand solution dropped at 1 μL/min, read-out: Affinity binding equilibrium dissociation constants (Kd) of ligand molecule and TTR. The procedure:
The affinity binding equilibrium dissociation constant Kd of TTR and each ligand molecule or salts thereof described in Example 24 was determined by nano ITC (TA).

The next experiment deals with TTR dimer (Homo sapiens, UniProt P02766). As to conditions: static co-crystallization model in the PDB database (3CFQ); cited from earlier work.
Setting [4] is: DR SD rats induced by STZ, 3 months of eye dropping, ligand independently (no TTR) in saline + 2% hyaluronic acid: 10 μmol/L diclofenac sodium/5 μmol/L vitamin A + 5% Tween 80/5 μmol/L luteoloside, right eye.
The mark [5] stands for this setting: ROP SD suckling rats induced by hyperbaric oxygen chamber, 5 days of eye dropping, ligand independently (no TTR) in saline + 2% hyaluronic acid: 10 μmol/L diclofenac sodium/5 μmol/L vitamin A + 5% Tween 80/5 μmol/L luteoloside, right eye.
The mark [6] stands for this setting: AMD C57BL/6 mice induced by laser retinal photocoagulation, 2 weeks of eye dropping, ligand independently (no TTR) in saline + 2% hyaluronic acid: 10 μmol/L diclofenac sodium/5 μmol/L vitamin A + 5% Tween 80/5 μmol/L luteoloside, right eye.
[7] abbreviates: DR SD rats induced by STZ, 3 months.
[8] abbreviates: DR SD rats, 10 μmol/L in saline solution + 2% hyaluronic acid, eyedropping twice a day, 3 months.
The mark [9] stands for this setting: ROP SD suckling rats, 10 μmol/L in saline solution + 2% hyaluronic acid, eyedropping once per day, 5 days.
[10] abbreviates: AMD C57BL/6 mice, 10 μmol/L in saline solution + 2% hyaluronic acid, eyedropping twice per day, 2 weeks.

As for `O=C(O)Cc1ccccc1Nc1c(Cl)cccc1Cl` [Diclofenac sodium, diclofenac sodium, reference compound], the “No. of retinal neovascularization (10 visual fields)” value (“No. of retinal neovascularization” for short) in experiment [1] (setting [4]) came out at 80 ± 9; in experiment [3] (setting [6]) it was 85 ± 6. The Retinal leakage area is 30.4% in experiment [1] (setting [4]), 48.5 ± 5.8% in experiment [2] (setting [5]) and 25.2 ± 3.0% in experiment [3] (setting [6]). Further, the pKd at TTR was 7.35.

Regarding `O=c1cc(-c2ccc(O)c(O)c2)oc2cc(O[C@@H]3O[C@H](CO)[C@@H](O)[C@H](O)[C@H]3O)cc(O)c12` [Luteoloside, luteoloside, reference compound], the “No. of retinal neovascularization” value came to 79 ± 9 in experiment [1] (setting [4]) and 82 ± 8 in experiment [3] (setting [6]). Moreover, the results for the Retinal leakage area in experiment [1] (setting [4]), in experiment [2] (setting [5]) and in experiment [3] (setting [6]) were 27.6%, 51.2 ± 6.8% and 21.3 ± 2.2%, respectively. In addition, the pKd at TTR was 6.89.

Turning to `CC1=C(/C=C/C(C)=C/C=C/C(C)=C/CO)C(C)(C)CC=C1` [Vitamin A2, 3-dehydroretinol], the pKd at TTR is 7.63.

For the molecule `CC1=C(/C=C/C(C)=C/C=C/C(C)=C/CO)C(C)(C)CCC1` [Vitamin A, retinol, reference compound], the “No. of retinal neovascularization” value is listed as 76 ± 8 in experiment [1] (setting [4]) and 79 ± 10 in experiment [3] (setting [6]). The Retinal leakage area in experiment [1] (setting [4]) came to 28.9%; in experiment [2] (setting [5]), 46.9 ± 4.9%; in experiment [3] (setting [6]), 26.7 ± 3.4%. Moreover, the pKd at TTR is 7.64.

Take `O=C(O)Cc1ccccc1Nc1c(Cl)cccc1Cl` [diclofenac]: the “molecules of ligand that one molecule of TTR dimer can bind” value on TTR dimer is “two molecules”.

As to “human TTR-CL: human mature TTR losing C terminus-TNPKE, amino acid sequence of SEQ ID NO: 11”, in experiment [1] (setting [7]), the “eyeball retinal leakage condition (in words)” value was “significantly inhibited” and the “number of retinal neovascularization (in words)” value was “reduced significantly”. Also, in experiment [1] (setting [8]), the “No. of retinal neovascularization” value was found to be 10 ± 1 and the Retinal leakage area was 5.7 ± 0.9%. In addition, in experiment [2] (setting [9]), the Retinal leakage area is given as 3.0%. For the same molecule, in experiment [3] (setting [10]), the “No. of retinal neovascularization” value is given as 11 ± 2 and the Retinal leakage area is listed as 4.8 ± 0.6%. Also, in experiment [3] (AMD C57BL/6 mice, 2 weeks), the “eyeball retinal leakage condition (in words)” value is “inhibited significantly” and the “number of retinal neovascularization / neovascularization condition (in words)” value is reported as “reduced significantly”.

As to “mouse TTR: recombinant mouse TTR, amino acid sequence SEQ ID NO: 10”, in experiment [3] (setting [10]), the “No. of retinal neovascularization” value is listed as 10 ± 3 and the Retinal leakage area is given as 4.2 ± 0.5%. For the same molecule, in experiment [3] (AMD C57BL/6 mice, 2 weeks), the “eyeball retinal leakage condition (in words)” value is “inhibited significantly” and the “number of retinal neovascularization / neovascularization condition (in words)” value is listed as “reduced significantly”.

Turning to “rat TTR: recombinant rat TTR, amino acid sequence SEQ ID NO: 9”, in experiment [1] (setting [7]), the “eyeball retinal leakage condition (in words)” value is on record as “significantly inhibited” and the “number of retinal neovascularization (in words)” value is on record as “reduced significantly”. Moreover, in experiment [1] (setting [8]), the “No. of retinal neovascularization” value is 13 ± 2 and the Retinal leakage area is given as 6.2 ± 0.7%. Besides, the Retinal leakage area in experiment [2] (setting [9]) stood at 3.6%.

Broadly, the pKd is the negative decadic logarithm of the Kd, by convention in mol/L.
